As a reminder, the IC50 is the midpoint of a concentration-inhibition curve.

We go through eleven compounds from publication PMC10746127, “New ψ-Santonin Derivatives from Crossostephium chinense and Their Anti-Proliferative Activities against Leishmania major and Human Cancer Cells A549” (Molecules, 2023).

Series [1] deals with Leishmania major. Briefly: anti-Leishmania major activity, MTT assay. The format is cell-based. Conditions: for IC50: Leishmania major, MTT, 72 h, 25 °C, n = 3, read-out: IC50 L. major; for SI1 (selective index, SI to L. major): by comparing the cytotoxicity to the Vero cells. As for the experimental part: (§1) The anti-Leishmania major activities of the isolated compounds were evaluated using an MTT assay according to an established protocol. In brief, gradient concentrations of sample solutions in dimethyl sulfoxide (DMSO) and L. major (1 × 10^5 parasite/well) in 100 μL of M199 medium were added to a 96-well plate and then incubated for 72 h at 25 °C. An amount of 100 μL MTT solution was then replaced and incubated overnight. The absorbance of formazan solution in DMSO was measured using a microplate reader at 550 nm. Miltefosine was used as a positive control. The human lung cancer cell line A549 was cultured in 10% FCS-supplemented DMEM. The cytotoxicity assay of isolated compounds was also performed in 96-well plates using the MTT method. Various concentrations of samples in DMSO and A549 (5 × 10^3 cells/well) were cultured in a CO2 incubator for 72 h. The medium was then replaced with 100 μL MTT solution and incubated for 1.5 h in the same condition. The viability was calculated by the absorbance of formazan at 550 nm using a microplate reader. The cytotoxicity assay against the Vero cell line was conducted as in A549, which is mentioned above. Doxorubicin was used as a positive control. The concentration gradient of each activity was essentially set as 100, 50, 25, 12.5, and 6.25 μg/mL (Figures S67–S69).

The test system of series [2] is human lung cancer cell line A549. Briefly: cytotoxicity against A549, MTT method. In kind it is cell-based. Conditions: for IC50: Homo sapiens, A549, MTT, 72 h, n = 3; for SI2 (selective index, SI to A549): by comparing the cytotoxicity to the Vero cells. As for the experimental part:
as §1

The test system of series [3] is Vero cells. Description: cytotoxicity against Vero cell line, MTT method. In kind it is cell-based. Conditions: Chlorocebus sabaeus, 72 h, n = 3. As for the experimental part:
as §1
In general terms: Tetrazolium dyes change colour on reduction, which living cells bring about.

Series [4] concerns L. major. The arrangement: method as in PMID 37375252. The note with it: isolated from the EtOAc layer; cited from earlier work.

In the case of `C=C1C(=O)O[C@H]2C3=C(C)CCC(=O)[C@]3(C)C[C@H](OC(=O)C=C(C)C)[C@@H]12` [Compound 1, Crossostenin A], the IC50 in series [1] was 0.81 ± 0.26 µM; in series [2], 2.97 ± 0.58 µM; in series [3], 5.99 ± 0.76 µM. Besides, the “SI1 (selective index, SI to L. major)” value in series [1] was 7.4. For the same compound, in series [2], the “SI2 (selective index, SI to A549)” value is listed as 2.0.

Regarding `C=C1C(=O)O[C@H]2C3=C(C)CCC(=O)[C@]3(C)C[C@H](OC(=O)/C(C)=C/C)[C@@H]12` [Compound 2, Crossostenin B], the IC50 in series [1] turned out to be 0.96 ± 0.17 µM; in series [2] it was 2.3 ± 0.26 µM; in series [3], 7.84 ± 0.61 µM. Besides, the “SI1 (selective index, SI to L. major)” value in series [1] is on record as 8.2. For the same compound, the “SI2 (selective index, SI to A549)” value in series [2] is recorded as 3.4.

On to `C=C(C(=O)OC)[C@@H]1[C@@H](OC(=O)/C(C)=C/C)C[C@@]2(C)C(=O)CCC(C)=C2[C@H]1O` [Compound 3, Crossostenin C], for which the figures for the IC50 in series [1], in series [2] and in series [3] were 3.75 ± 0.98 µM, 5.59 ± 0.72 µM and 6.2 ± 1.36 µM, respectively.

Consider `C=C(C(=O)OC)[C@@H]1[C@@H](OC(=O)/C(C)=C\C)C[C@@]2(C)C(=O)CCC(C)=C2[C@H]1O` [Compound 4, Crossostenin D], for which the IC50 in series [1] worked out at 7.66 ± 2.26 µM; in series [2], 17.1 ± 1.86 µM; in series [3], 17.2 ± 1.36 µM.

With `CC(=O)OC1CC2(C)C(=O)CCC(C)=C2C2OC(=O)C(CN3CCCC3C(=O)O)C12` (stereo not drawn) [Compound 5, Crossoseamine C], the IC50 was 4.72 ± 1.26 µM in series [1], 17.4 ± 1.86 µM in series [2] and 11.4 ± 0.98 µM in series [3].

As to `CC1=C2C3OC(=O)C(CN4CCCC4C(=O)O)C3CCC2(C)C(=O)CC1` (stereo not drawn) [Compound 6, Crossoseamine D], the IC50 in series [1] was 52.6 ± 11.6 µM; in series [2], 83.9 ± 12.1 µM; in series [3] it was 48.5 ± 4.07 µM.

Take `CC1=C2C3OC(=O)C(CN4CCCC4C(=O)O)C3C(O)CC2(C)C(=O)CC1` (stereo not drawn) [Compound 7, Crossoseamine E]: the results for the IC50 in series [1], in series [2] and in series [3] were 30.8 ± 5.81 µM, 58.9 ± 13.6 µM and 23.8 ± 2.47 µM, respectively.

Turning to `COc1cccc2c1C(=O)c1c(O)c3c(c(O)c1C2=O)C[C@@](O)(C(=O)CO)C[C@@H]3O[C@H]1C[C@H](N)[C@H](O)[C@H](C)O1` [doxorubicin, reference compound], the IC50 came out at 0.45 ± 0.13 µM in series [2] and 3.82 ± 0.79 µM in series [3].

As to `CCCCCCCCCCCCCCCCOP(=O)([O-])OCC[N+](C)(C)C` [miltefosine, reference compound], in series [1], the IC50 came to 18.1 ± 1.69 µM.

With crossoseamine A, the “cytotoxicity against L. major” value in series [4] is recorded as “potent cytotoxicity”.

Turning to crossoseamine B, the “cytotoxicity against L. major” value in series [4] is reported as “potent cytotoxicity”.
